Molecular target: T1, NagK (GlcNAc kinase) (Shewanella oneidensis, UniProt Q8EBK6)
T1 sequence (Q8EBK6 2-300): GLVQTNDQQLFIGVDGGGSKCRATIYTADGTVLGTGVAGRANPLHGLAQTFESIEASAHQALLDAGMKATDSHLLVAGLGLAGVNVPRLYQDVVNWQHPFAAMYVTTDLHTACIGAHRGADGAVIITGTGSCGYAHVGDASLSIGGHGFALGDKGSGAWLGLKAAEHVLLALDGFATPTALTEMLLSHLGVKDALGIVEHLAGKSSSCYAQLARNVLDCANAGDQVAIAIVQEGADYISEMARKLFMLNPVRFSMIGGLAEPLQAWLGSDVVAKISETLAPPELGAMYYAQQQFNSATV
Assay: ADP-Glo kinase assay (luminescence)
Assay type: biochemical
Conditions: ATP; 40 mM Tris-HCl, 20 mM MgCl2, 0.1 mg/ml BSA; 0.1 to 1 mM substrate

CC(=O)N[C@H]1C(O)O[C@H](CO)[C@@H](O)[C@@H]1O (stereo partly shown) [GlcNAc, N-acetylglucosamine]
ADP-Glo kinase assay (luminescence): NagK is able to phosphorylate glucose in addition to its known substrate, GlcNAc
